Common to all, as to assay type: biochemical
One assay deals with T1, PI3Kδ (Homo sapiens, UniProt O00329).
T1 construct: purchased Millipore Corporation 14-604-K
Description: PI3 Kinase HTRF assay, PI3Kδ. As to conditions: 10 μM PIP2, 10 μM ATP; read-out: PI3K δ IC50. From the text: (§1) A PI3 Kinase HTRF® assay kit (cat No. 33-016) purchased from Millipore Corporation was used to screen compounds disclosed herein. This assay used specific, high affinity binding of the GRP1 pleckstrin homology (PH) domain to PIP3, the product of a Class 1A or 1B PI3 Kinase acting on its physiological substrate PIP2. During the detection phase of the assay, a complex was generated between the GST-tagged PH domain and biotinylated short chain PIP3. The biotinylated PIP3 and the GST-tagged PH domain recruited fluorophores (Streptavidin-Allophycocyanin and Europium-labeled anti-GST respectively) to form the fluorescence resonance energy transfer (FRET) architecture, generating a stable time-resolved FRET signal. The FRET complex was disrupted in a competitive manner by non-biotinylated PIP3, a product formed in the PI3 Kinase assay.
(§2) PI3 Kinase α, β, γ and δ activity was assayed using the PI3 Kinase HTRF® assay kit (catalogue No. 33-016) purchased from Millipore Corporation. Purified recombinant PI3Kα (catalogue No. 14-602-K), PI3Kβ (catalogue No. 14-603-K), PI3Kγ (catalogue No. 14-558-K) and PI3Kδ (catalogue No. 14-604-K) were obtained from Millipore Corporation. Purified recombinant PI3K enzyme was used to catalyze the phosphorylation of phosphatidylinositol 4,5-bisphosphate (PIP2 at 10 μM) to phosphatidylinositol 3,4,5-trisphosphate (PIP3) in the presence of 10 μM ATP. The assay was carried out in 384-well format and detected using a Perkin Elmer En Vision Xcite Multilabel Reader. Emission ratios were converted into percent inhibitions and imported into GraphPad Prism software. The concentration necessary to achieve inhibition of enzyme activity by 50% (IC50) was calculated using concentrations ranging from 20 μM to 0.1 nM (12-point curve). IC50 values were determined using a nonlinear regression model available in GraphPad Prism 5. […]

The target of a further assay is T2, PI3Kγ (Homo sapiens, UniProt P48736).
T2 construct: purchased Millipore Corporation 14-558-K
Description: PI3 Kinase HTRF assay, PI3Kγ. The conditions noted are these: 10 μM PIP2, 10 μM ATP; read-out: PI3K γ IC50.
Description: as §1, §2

The target of a further assay is T3, PI3Kβ (Homo sapiens, UniProt P42338).
T3 construct: purchased Millipore Corporation 14-603-K
Description: PI3 Kinase HTRF assay, PI3Kβ. As to conditions: 10 μM PIP2, 10 μM ATP; read-out: PI3K β IC50.
Description: as §1, §2

The target of the next assay is T4, PI3Kα (Homo sapiens, UniProt P42336).
T4 construct: purchased Millipore Corporation 14-602-K
Description: PI3 Kinase HTRF assay, PI3Kα. As to conditions: 10 μM PIP2, 10 μM ATP; read-out: PI3K α IC50.
Description: as §1, §2

This note sets out measurements from patent US8901133B2, “Heterocyclic compounds and uses thereof” (Infinity Pharmaceuticals, Inc., priority 2010, dated 2014).

T2 sequence (P48736 whole entry): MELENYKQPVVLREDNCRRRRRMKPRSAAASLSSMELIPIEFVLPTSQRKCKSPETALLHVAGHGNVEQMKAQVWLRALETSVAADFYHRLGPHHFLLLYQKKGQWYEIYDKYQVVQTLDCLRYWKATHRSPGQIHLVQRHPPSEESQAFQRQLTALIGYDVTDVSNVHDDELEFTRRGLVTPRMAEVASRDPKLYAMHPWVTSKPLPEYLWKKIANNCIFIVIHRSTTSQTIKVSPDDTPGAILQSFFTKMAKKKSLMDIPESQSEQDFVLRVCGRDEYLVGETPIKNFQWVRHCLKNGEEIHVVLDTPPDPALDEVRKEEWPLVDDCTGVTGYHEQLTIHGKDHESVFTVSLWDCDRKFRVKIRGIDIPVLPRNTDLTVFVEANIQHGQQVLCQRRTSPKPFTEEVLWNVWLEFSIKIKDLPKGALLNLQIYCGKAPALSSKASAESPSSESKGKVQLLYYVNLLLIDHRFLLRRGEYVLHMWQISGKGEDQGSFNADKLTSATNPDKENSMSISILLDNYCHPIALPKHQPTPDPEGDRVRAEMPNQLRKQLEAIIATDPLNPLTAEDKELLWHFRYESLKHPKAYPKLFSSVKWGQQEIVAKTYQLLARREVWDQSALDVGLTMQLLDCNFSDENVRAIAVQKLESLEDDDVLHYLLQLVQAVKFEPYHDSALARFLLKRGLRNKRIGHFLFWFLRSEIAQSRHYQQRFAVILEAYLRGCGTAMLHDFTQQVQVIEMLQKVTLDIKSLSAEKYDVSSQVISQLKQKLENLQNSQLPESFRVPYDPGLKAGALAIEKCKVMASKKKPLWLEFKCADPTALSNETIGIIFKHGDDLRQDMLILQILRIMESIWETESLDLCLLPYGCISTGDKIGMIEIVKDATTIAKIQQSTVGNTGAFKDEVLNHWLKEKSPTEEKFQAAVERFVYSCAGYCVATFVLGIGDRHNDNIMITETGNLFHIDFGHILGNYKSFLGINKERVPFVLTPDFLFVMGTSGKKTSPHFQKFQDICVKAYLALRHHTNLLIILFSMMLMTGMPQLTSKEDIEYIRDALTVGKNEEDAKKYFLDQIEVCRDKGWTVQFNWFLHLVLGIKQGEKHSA
T1 sequence (O00329 whole entry): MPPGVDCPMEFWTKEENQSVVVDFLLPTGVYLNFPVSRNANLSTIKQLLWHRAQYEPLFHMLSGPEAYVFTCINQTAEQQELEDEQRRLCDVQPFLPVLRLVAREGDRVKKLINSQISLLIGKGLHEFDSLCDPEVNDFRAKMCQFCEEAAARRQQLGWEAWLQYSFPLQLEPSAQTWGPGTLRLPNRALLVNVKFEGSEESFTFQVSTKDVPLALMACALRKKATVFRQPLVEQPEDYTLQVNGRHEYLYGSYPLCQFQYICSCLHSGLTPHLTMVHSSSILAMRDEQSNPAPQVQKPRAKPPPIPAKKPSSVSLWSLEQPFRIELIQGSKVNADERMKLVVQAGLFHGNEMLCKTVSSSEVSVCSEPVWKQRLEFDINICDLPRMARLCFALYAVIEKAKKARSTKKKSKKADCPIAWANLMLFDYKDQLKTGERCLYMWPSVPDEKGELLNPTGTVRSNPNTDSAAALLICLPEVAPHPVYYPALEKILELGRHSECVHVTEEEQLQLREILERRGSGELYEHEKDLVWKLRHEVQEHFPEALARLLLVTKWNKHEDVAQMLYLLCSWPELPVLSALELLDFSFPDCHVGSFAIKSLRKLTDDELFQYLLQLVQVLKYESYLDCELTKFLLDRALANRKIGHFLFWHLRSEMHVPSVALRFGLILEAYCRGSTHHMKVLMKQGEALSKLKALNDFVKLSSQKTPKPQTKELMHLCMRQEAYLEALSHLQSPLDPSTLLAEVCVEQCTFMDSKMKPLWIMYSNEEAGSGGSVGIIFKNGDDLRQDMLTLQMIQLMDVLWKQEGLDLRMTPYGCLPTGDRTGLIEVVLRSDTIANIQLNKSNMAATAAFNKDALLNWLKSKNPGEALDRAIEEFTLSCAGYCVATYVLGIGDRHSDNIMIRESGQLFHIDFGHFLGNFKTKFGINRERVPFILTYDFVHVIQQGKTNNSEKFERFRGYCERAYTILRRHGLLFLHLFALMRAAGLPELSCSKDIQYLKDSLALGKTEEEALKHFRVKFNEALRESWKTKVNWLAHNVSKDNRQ
T1 sequence (P27986 whole entry partner): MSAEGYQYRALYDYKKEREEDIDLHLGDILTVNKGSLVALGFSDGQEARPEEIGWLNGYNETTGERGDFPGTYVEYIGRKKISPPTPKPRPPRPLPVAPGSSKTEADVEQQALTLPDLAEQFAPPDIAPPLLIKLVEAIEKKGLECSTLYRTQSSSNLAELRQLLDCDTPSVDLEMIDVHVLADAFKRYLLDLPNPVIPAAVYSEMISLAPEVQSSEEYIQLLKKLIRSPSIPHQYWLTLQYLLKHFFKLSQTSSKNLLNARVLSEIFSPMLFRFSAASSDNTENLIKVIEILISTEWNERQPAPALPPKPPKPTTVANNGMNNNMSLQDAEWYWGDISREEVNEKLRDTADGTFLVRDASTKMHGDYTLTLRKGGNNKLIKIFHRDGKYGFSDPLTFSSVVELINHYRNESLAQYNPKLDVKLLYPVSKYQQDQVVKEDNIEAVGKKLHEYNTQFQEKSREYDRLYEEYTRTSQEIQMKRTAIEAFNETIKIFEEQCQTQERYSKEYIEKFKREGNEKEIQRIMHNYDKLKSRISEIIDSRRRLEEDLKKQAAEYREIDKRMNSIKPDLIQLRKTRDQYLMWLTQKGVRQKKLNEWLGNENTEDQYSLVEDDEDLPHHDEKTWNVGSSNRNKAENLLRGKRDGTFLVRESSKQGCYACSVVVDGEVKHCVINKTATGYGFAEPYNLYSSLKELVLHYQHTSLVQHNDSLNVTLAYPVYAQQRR
T4 sequence (P42336 whole entry): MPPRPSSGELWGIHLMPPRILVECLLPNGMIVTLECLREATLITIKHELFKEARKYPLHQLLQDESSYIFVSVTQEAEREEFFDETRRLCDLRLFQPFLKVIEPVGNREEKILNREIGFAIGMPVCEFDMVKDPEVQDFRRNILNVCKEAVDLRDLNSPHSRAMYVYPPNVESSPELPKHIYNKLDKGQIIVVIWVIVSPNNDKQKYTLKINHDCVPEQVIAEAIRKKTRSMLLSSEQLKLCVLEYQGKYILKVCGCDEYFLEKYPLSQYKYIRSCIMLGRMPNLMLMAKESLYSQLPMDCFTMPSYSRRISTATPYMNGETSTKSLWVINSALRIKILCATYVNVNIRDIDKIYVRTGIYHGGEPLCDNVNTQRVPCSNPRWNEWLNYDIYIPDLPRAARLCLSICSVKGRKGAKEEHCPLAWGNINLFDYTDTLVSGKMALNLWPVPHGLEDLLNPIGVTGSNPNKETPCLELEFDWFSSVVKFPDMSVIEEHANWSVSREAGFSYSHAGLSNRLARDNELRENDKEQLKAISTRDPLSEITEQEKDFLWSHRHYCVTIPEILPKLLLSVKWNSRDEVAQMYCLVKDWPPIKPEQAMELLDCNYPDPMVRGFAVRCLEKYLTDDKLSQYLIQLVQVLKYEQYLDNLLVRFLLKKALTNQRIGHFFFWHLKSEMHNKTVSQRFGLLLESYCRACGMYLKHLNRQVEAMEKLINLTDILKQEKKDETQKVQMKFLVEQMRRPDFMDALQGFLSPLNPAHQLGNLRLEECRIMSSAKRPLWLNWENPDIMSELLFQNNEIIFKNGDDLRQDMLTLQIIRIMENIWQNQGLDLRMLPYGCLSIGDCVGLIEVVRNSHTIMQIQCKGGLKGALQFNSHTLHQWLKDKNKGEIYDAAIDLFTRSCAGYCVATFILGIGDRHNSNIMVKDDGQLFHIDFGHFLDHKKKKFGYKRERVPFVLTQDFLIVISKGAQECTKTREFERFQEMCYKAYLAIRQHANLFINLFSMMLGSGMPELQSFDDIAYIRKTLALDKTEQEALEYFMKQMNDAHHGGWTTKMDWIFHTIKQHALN
T4 sequence (P27986 whole entry partner): as the sequence (P27986 whole entry partner) above
T3 sequence (P42338 whole entry): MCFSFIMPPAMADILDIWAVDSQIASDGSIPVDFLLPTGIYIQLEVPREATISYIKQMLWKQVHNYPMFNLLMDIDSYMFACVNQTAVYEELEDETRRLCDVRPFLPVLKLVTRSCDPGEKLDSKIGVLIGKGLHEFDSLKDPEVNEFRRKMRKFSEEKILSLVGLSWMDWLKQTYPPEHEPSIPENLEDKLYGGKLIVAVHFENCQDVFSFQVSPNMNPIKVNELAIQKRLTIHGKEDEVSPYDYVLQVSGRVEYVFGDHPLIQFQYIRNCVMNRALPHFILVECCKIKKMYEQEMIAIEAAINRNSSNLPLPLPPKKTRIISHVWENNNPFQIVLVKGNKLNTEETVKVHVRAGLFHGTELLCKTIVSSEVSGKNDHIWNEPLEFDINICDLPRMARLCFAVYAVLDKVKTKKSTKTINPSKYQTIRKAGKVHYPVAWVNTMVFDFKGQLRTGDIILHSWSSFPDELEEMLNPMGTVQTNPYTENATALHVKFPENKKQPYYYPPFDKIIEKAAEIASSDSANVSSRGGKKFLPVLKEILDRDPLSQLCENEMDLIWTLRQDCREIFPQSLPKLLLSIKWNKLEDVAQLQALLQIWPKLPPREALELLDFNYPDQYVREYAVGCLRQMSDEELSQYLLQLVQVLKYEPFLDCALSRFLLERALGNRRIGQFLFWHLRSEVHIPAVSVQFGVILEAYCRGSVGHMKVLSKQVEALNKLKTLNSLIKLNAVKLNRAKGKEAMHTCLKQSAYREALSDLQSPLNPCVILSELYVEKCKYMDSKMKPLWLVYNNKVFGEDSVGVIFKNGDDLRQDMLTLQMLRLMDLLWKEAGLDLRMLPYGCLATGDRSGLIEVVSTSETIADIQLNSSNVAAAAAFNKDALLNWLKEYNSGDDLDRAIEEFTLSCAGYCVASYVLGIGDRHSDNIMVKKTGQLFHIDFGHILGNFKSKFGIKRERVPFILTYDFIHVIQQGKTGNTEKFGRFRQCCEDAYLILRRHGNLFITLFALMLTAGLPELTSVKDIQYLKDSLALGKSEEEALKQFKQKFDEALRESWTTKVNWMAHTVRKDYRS
T3 sequence (P27986 whole entry partner): as the sequence (P27986 whole entry partner) above

On to `C[C@H](Nc1ncnc2[nH]cnc12)c1cc2cccc(Cl)c2c(S(=O)(=O)CCN2CCOCC2)n1` [Compound 134], for which the IC50 was less than 1 µM on PI3Kδ, more than 10 µM at PI3Kγ, more than 10 µM on PI3Kβ and more than 10 µM on PI3Kα.
As for `CNC(=O)NCCOc1nc([C@H](C)Nc2ncnc3[nH]cnc23)cc2cccc(Cl)c12` [Compound 139], the IC50 at PI3Kδ is less than 1 µM; on PI3Kγ, less than 10 µM; at PI3Kβ it was less than 10 µM; at PI3Kα, more than 10 µM.
Regarding `C[C@H](Nc1ncnc2[nH]cnc12)c1cc2cccc(-c3cnn(C)c3)c2c(N2CCN(C)CC2)n1` [Compound 142], the IC50 was less than 1 µM at PI3Kδ, more than 10 µM on PI3Kγ, less than 10 µM at PI3Kβ and more than 10 µM on PI3Kα.
For `C[C@H](Nc1ncnc2cccnc12)c1cc2cccc(Cl)c2c(C(=O)NC2CCOCC2)n1` [Compound 143], the IC50 at PI3Kδ is less than 1 µM; at PI3Kγ, less than 10 µM; on PI3Kβ it was more than 10 µM; on PI3Kα, more than 10 µM.
On to `Cc1cccc2cc([C@H](C)Nc3ncnc4[nH]cnc34)nc(C(=O)N3CCOCC3)c12` [Compound 147], for which the IC50 at PI3Kδ was less than 1 µM; at PI3Kγ it was less than 10 µM; at PI3Kβ it was more than 10 µM; at PI3Kα, more than 10 µM.
In the case of `C[C@H](Nc1ncnc2cccnc12)c1cc2cccc(-c3cnn(C)c3)c2c(OCCN2CCCC2)n1` [Compound 148], the IC50 at PI3Kδ is less than 1 µM; at PI3Kγ, less than 10 µM; on PI3Kβ it was more than 10 µM; at PI3Kα, less than 10 µM.
Regarding `C[C@H](Nc1ncnc2cccnc12)c1cc2cccc(-c3cnn(C)c3)c2c(CCN2CCOCC2)n1` [Compound 154], the IC50 was less than 1 µM on PI3Kδ, less than 10 µM on PI3Kγ, more than 10 µM at PI3Kβ and less than 10 µM on PI3Kα.
Turning to `C[C@H](Nc1ncnc2[nH]cnc12)c1cc2cccc(-c3cnn(C)c3)c2c(CCN2CCOCC2)n1` [Compound 157], the IC50 at PI3Kδ was less than 1 µM; at PI3Kγ, less than 10 µM; at PI3Kβ it was more than 10 µM; at PI3Kα it was more than 10 µM.
For `Cc1nc([C@H](C)Nc2ncnc3[nH]cnc23)cc2cccc(-c3cccnc3)c12` [Compound 170], the IC50 at PI3Kδ is less than 0.1 µM; on PI3Kγ, less than 10 µM; on PI3Kβ, more than 10 µM; on PI3Kα, more than 10 µM.
Take `Cc1nc([C@H](C)Nc2ncnc3[nH]cnc23)cc2cccc(-c3cnn(C)c3)c12` [Compound 171]: the IC50 at PI3Kδ was less than 0.1 µM; on PI3Kγ it was less than 10 µM; on PI3Kβ, more than 10 µM; on PI3Kα, less than 10 µM.
As for `C[C@H](Nc1ccnc2ccnn12)c1cc2cccc(Cl)c2c(OC2CCN(S(C)(=O)=O)CC2)n1` [Compound 174], the IC50 at PI3Kδ is less than 1 µM; on PI3Kγ, more than 10 µM; on PI3Kβ it was less than 10 µM; on PI3Kα, more than 10 µM.
`C[C@H](Nc1ncnc2cccnc12)c1cc2cccc(-c3cnn(C)c3)c2c(C(=O)N2CCOCC2)n1` [Compound 187]: the IC50 on PI3Kδ is less than 1 µM; on PI3Kγ it was less than 10 µM; at PI3Kβ, more than 10 µM; at PI3Kα, less than 10 µM.
`C[C@H](Nc1ncnc2[nH]cnc12)c1cc2cccc(-c3cnn(C)c3)c2c(Cl)n1` [Compound 193]: the IC50 at PI3Kδ was less than 0.1 µM; on PI3Kγ, less than 1 µM; at PI3Kβ, more than 10 µM; on PI3Kα, more than 10 µM.
Consider `Cc1nc([C@H](C)Nc2ncnc3[nH]cnc23)cc2cccc(C(=O)N3CCOCC3)c12` [Compound 198], for which the IC50 on PI3Kδ was less than 1 µM; at PI3Kγ, more than 10 µM; on PI3Kβ it was more than 10 µM; on PI3Kα, more than 10 µM.
As to `Cc1nc([C@H](C)Nc2ncnc3[nH]cnc23)cc2cccc(C(=O)N3C4CCC3COC4)c12` [Compound 199], the IC50 on PI3Kδ was less than 10 µM; at PI3Kγ, more than 10 µM; at PI3Kβ, more than 10 µM; at PI3Kα it was more than 10 µM.
Turning to `C[C@H](Nc1ncnc2cccnc12)c1cc2cccc(-c3cnn(C)c3)c2c(C(=O)N2C3CCC2COC3)n1` [Compound 200], the IC50 at PI3Kδ was less than 1 µM; at PI3Kγ, more than 10 µM; on PI3Kβ, more than 10 µM; on PI3Kα, more than 10 µM.
Take `C[C@H](Nc1ncnc2[nH]cnc12)c1cc2cccc(-c3cnn(C)c3)c2c(C(=O)N2C3CCC2COC3)n1` [Compound 201]: the IC50 on PI3Kδ is less than 0.1 µM; on PI3Kγ, less than 1 µM; on PI3Kβ, more than 10 µM; on PI3Kα, more than 10 µM.
For the compound `Cc1nc([C@H](C)Nc2ncnc3[nH]cnc23)cc2cccc(C(=O)N3CCN(C)CC3)c12` [Compound 202], the IC50 on PI3Kδ, on PI3Kγ, at PI3Kβ and on PI3Kα was more than 10 µM throughout.
Regarding `C[C@H](Nc1ncnc2[nH]cc(C#N)c12)c1cc2cccc(Cl)c2c(C(=O)N2CCOCC2)n1` [Compound 203], the IC50 on PI3Kδ was less than 0.1 µM; on PI3Kγ, less than 1 µM; on PI3Kβ, less than 10 µM; on PI3Kα it was less than 10 µM.
As to `C[C@H](Nc1ncnc2[nH]cc(F)c12)c1cc2cccc(Cl)c2c(C(=O)N2CCOCC2)n1` [Compound 205], the IC50 is less than 0.1 µM at PI3Kδ, less than 1 µM on PI3Kγ, less than 10 µM at PI3Kβ and less than 10 µM at PI3Kα.
For `C[C@H](Nc1ncnc2[nH]cc(C#N)c12)c1cc2cccc(Cl)c2c(C(=O)N2C3CCC2COC3)n1` [Compound 206], the IC50 at PI3Kδ is less than 0.1 µM; at PI3Kγ, less than 10 µM; on PI3Kβ, less than 10 µM; at PI3Kα, more than 10 µM.
Regarding `C[C@H](Nc1ncnc2scnc12)c1cc2cccc(Cl)c2c(C(=O)NC2CCNCC2)n1` [Compound 209], the IC50 was less than 0.1 µM at PI3Kδ, more than 10 µM on PI3Kγ, more than 10 µM on PI3Kβ and less than 10 µM on PI3Kα.
For the compound `C[C@H](Nc1ncnc2scnc12)c1cc2cccc(Cl)c2c(C(=O)NC2CCN(C)CC2)n1` [Compound 210], the IC50 at PI3Kδ is less than 0.1 µM; on PI3Kγ it was more than 10 µM; on PI3Kβ it was more than 10 µM; at PI3Kα it was more than 10 µM.
For the compound `CC(C)N1CCC(NC(=O)c2nc([C@H](C)Nc3ncnc4scnc34)cc3cccc(Cl)c23)CC1` [Compound 211], the concentration for half-maximal inhibition (IC50) on PI3Kδ was less than 1 µM; on PI3Kγ, more than 10 µM; on PI3Kβ it was more than 10 µM; at PI3Kα it was more than 10 µM.
Turning to `C[C@H](Nc1ncnc2scnc12)c1cc2cccc(Cl)c2c(C(=O)NC2CCOC2)n1` (some centres unmarked) [Compound 215], the half-inhibitory concentration (IC50) at PI3Kδ was less than 0.1 µM; on PI3Kγ, less than 10 µM; at PI3Kβ, more than 10 µM; at PI3Kα it was more than 10 µM.
On to `C[C@H](Nc1ncnc2scnc12)c1cc2cccc(Cl)c2c(C(=O)NCC2CCOCC2)n1` [Compound 216], for which the concentration for half-maximal inhibition (IC50) at PI3Kδ is less than 1 µM; on PI3Kγ, more than 10 µM; at PI3Kβ, more than 10 µM; on PI3Kα, more than 10 µM.
Take `C[C@H](Nc1nc(N)ncc1C(F)(F)F)c1cc2cccc(Cl)c2c(C(=O)N2CCOCC2)n1` [Compound 217]: the IC50 at PI3Kδ was less than 1 µM; on PI3Kγ it was less than 10 µM; at PI3Kβ it was more than 10 µM; on PI3Kα it was more than 10 µM.
Turning to `C[C@H](Nc1ncnc2scnc12)c1cc2cccc(Cl)c2c(C(=O)N2CCNC(=O)C2)n1` [Compound 218], the IC50 on PI3Kδ was less than 0.1 µM; on PI3Kγ, less than 1 µM; on PI3Kβ, less than 10 µM; at PI3Kα, more than 10 µM.
Take `C[C@H](Nc1ncnc2cccnc12)c1cc2cccc(Cl)c2c(C(=O)N2CCS(=O)(=O)CC2)n1` [Compound 219]: the IC50 was less than 1 µM on PI3Kδ, less than 1 µM at PI3Kγ, more than 10 µM at PI3Kβ and more than 10 µM at PI3Kα.
For `CC1CN(C(=O)c2nc([C@H](C)Nc3ncnc4scnc34)cc3cccc(Cl)c23)CCO1` (some centres unmarked) [Compound 221], the IC50 is less than 0.1 µM on PI3Kδ, less than 1 µM at PI3Kγ, more than 10 µM on PI3Kβ and more than 10 µM at PI3Kα.
Turning to `CC1CN(C(=O)c2nc([C@H](C)Nc3ncnc4cccnc34)cc3cccc(Cl)c23)CCO1` (some centres unmarked) [Compound 222], the IC50 at PI3Kδ is less than 1 µM; on PI3Kγ it was less than 1 µM; on PI3Kβ, more than 10 µM; on PI3Kα, less than 10 µM.
Regarding `C[C@H](Nc1ncnc2scnc12)c1cc2cccc(Cl)c2c(C(=O)N(C)C)n1` [Compound 223], the IC50 on PI3Kδ was less than 1 µM; at PI3Kγ it was less than 1 µM; on PI3Kβ, less than 10 µM; on PI3Kα, more than 10 µM.
